From patent US20010041365A1, “Methods for monitoring alcohol consumption” (priority 2000, published 2001)
Read-outs that look alike come from different tables or passages of the source. Marks after values point to notes of the source that are not given here.

Assays:
[1] = Serum FAEE and blood ethanol over time in men and women after alcohol consumption over 90 minutes (Example 1); type: in vivo, human
Procedure: Seven volunteers (four men and […]) were given measured amounts of 100-proof vodka mixed with fruit juice in a 1:3 ratio which was weight-adjusted to increase blood ethanol levels to approximately 120-147 mg/dL. The beverage was divided in 9 equal aliquots which the subjects drank over a 90 minute period, 1 aliquot every 10 minutes. This alcohol intake represented consumption to the legal limit of intoxication. Once the drinking commenced, blood was collected from a catheter every 15 min for the first 2.5 h. Between 2.5 and 4.0 h, samples were collected every 30 min; and from 4 to 8 h, they were collected every 60 min. A final blood sample was also collected 24 h after the ethanol ingestion commenced. Blood was collected from a peripheral venous catheter into vacuum tubes without anti-coagulant (for serum FAEE) and into tubes with the anti-coagulant sodium citrate (for plasma ethanol). (Soderberg, et al., Clinical Chemistry, 45(12):2183-2190, 1999; Doyle, K. M. et al., JAMA, 276:1152-1156, 1996)
All samples were extracted with acetone/hexane (2/8, v/v) and dried under nitrogen vapors to a volume of approximately 300 μL. […] FAEEs were then quantitated by gas chromatography-mass spectrometry (GC-MS) using a Hewlett-Packard 5890 Series II gas chromatograph equipped with a Supelcowax SP-2330 capillary column coupled to an HP-5971 mass spectrometer.

[2] = Distribution of plasma FAEE species in chronic alcoholics vs. acutely intoxicated individuals (Example 6); type: in vivo, human; settings: for proportion of total FAEE, acute drinkers relative to chronic drinkers: plasma
Excerpt: Plasma was obtained from chronic alcoholics (i.e. chronic drinkers) at the time of admission to a detoxification program. Acutely intoxicated control subjects used for comparison in this study were normal, healthy volunteers who also participated in the study concerning gender and alcoholic beverage type (see above).

[3] = Plasma FAEE levels in acute (binge) and chronic drinkers at peak ethanol levels and 24 hours after peak (Example 7); type: in vivo, human; settings: for mean difference between proportion of total FAEE which is ethyl stearate and proportion which is ethyl oleate: 24 hours after alcohol consumption; for average proportion of total FAEE which is ethyl oleate: peak or near peak ethanol levels; for concentration at 24 h: human, plasma, oral; for Proportion of Ethyl Oleate in Binge Drinkers (Mean +/− SEM) / Proportion of Ethyl Oleate in Binge Drinkers (range) / Proportion of Ethyl Oleate in Chronic Drinkers (Mean +/− SEM) / Proportion of Ethyl Oleate in Chronic Drinkers (range): of total FAEE in plasma
Procedure: Thus, as an example, gas chromatography either alone or in combination with mass spectrometry and/or an initial step of solid phase extraction can be used to determine total and/or individual fatty acid ethyl ester concentrations. […] If the sample has been previously harvested and frozen, it is thawed out and a 1 mL aliquot is removed for analysis. […] In order to determine and quantitate FAEE content, an internal standard of 1 nmol of ethyl heptadecanoate (ethyl 17:0) is added to each sample. Samples are extracted with acetone hexane (2:8, by volume) and dried under nitrogen vapors to a volume of approximately 300 μL. FAEEs are isolated by solid phase extraction using Bond Elut-LRC aminopropyl columns. Columns are pre-washed with dichloromethane followed by hexane; the sample is then applied to the column and eluted by successive washes of hexane and dichloromethane. Combined eluates are concentrated, and FAEEs are then quantified by GC-MS using a Hewlett Packard 5890 Series II gas chromatograph equipped with a Supelcowax SP-2330 capillary column coupled to an HP-5971 mass spectrometer. The injector and detector are maintained at 260° C. and 280° C., respectively. The oven program is initially maintained at 130° C. for 2 minutes then ramped to 160° C. at 5° C./min, ramped again at 2° C./min to 180° C., held for 7 min, finally, ramped to 230° C. at 15° C/min and maintained for 2 min. Carrier gas flow rate is maintained at a constant 0.8 mL/min throughout. Single-ion monitoring is performed, quantifying appropriate base ions for individual FAEE species [i.e., ions m/z 67, 88, and 101 for ethyl palmitate (E16:0), ethyl heptadecanoate (E17:0), ethyl stearate (E18:0), ethyl oleate (E18:1), and ethyl linoleate (E18.2); and ions m/z 79 and 91 for ethyl arachidonate (E20:4), ethyl eicosapentaenoate (E20:5), and ethyl docosahexaenoate (E22:6)]. FAEEs are quantitated by interpolation of the slope generated from individually prepared calibration curves comparing areas of varying concentrations of E16:0-E22:6 to fixed concentrations of the internal standard (E17:0). Mass relationships are obtained for each FAEE using its individual calibration curve. Total FAEE mass is determined by the addition of masses of individual FAEEs (E16:0-E22:6).
A subset of human subjects presenting at the Massachusetts General Hospital with apparent alcohol related symptoms were entered into this study. Blood was collected from such subjects immediately at the time of presentation, which was assumed to be at peak or near peak ethanol levels, and again 24 hours after presentation. A medical history taken from each subject was used to categorize the subject as a chronic alcoholic or an acute (i.e., binge) drinker. Blood samples were processed, as described herein, to determine the absolute levels of ethyl palmitate, ethyl oleate and total FAEE in plasma.

[4] = Post-mortem liver and adipose FAEE as markers of pre-mortem ethanol intake (Example 9); type: in vivo; settings: autopsy tissue
Excerpt: This study was approved by both the Massachusetts Medical Examiner Office Committee and the Massachusetts General Hospital Pathology Quality Assurance Committee. Twenty-four sets of samples were collected at the Massachusetts State Medical Examiner's Office and 7 sets of samples were obtained from the Pathology Department of Massachusetts General Hospital. Medical history, history of ethanol ingestion (obtained from the organ bank, treating physician, health insurance records, and/or relatives), and the blood ethanol level at autopsy were obtained in each case. Only cases with available blood ethanol levels were included in this study. Individuals who had detectable blood ethanol levels at the time of autopsy, with or without a history of ethanol abuse, were grouped as “positive for ethanol.” Individuals categorized in the chronic alcoholic or social drinker groups met all of the following criteria a) no known alcohol intake immediately prior to death; b) undetectable blood ethanol level in blood samples collected at autopsy; and c) no suspicious incident at the time of death. In addition, chronic alcoholics were diagnosed according to the Diagnostic and Statistical Manual-IV.
Samples of liver and adipose tissue were collected at autopsy from randomly selected cases and FAEE were isolated and quantitated from these organs as mass per gram wet weight. […]

[5] = binge drinkers, 24 hours after peak ethanol levels
[6] = a day after peak or near peak alcohol levels

With `CCO` [ethanol] the “time at which blood ethanol decreased to initial levels” value ([1]; after the beginning of alcohol intake) was “about 500 minutes” and the “maximum level of blood ethanol” value ([1]; both men and women) was “approximately 130 mg/dL”.
For `CCCCCCCCCCCCCCCCCC(=O)OCC` [ethyl stearate], the “proportion of total FAEE, acute drinkers relative to chronic drinkers” value [2] was ~15 fold, the “mean difference between proportion of total FAEE which is ethyl stearate and proportion which is ethyl oleate” value ([3]; binge drinkers) was “about 10%” and the “mean difference between proportion of total FAEE which is ethyl stearate and proportion which is ethyl oleate” value ([3]; chronic alcoholics) was “roughly 70%”.
For `CCCCCCCC/C=C\CCCCCCCC(=O)OCC` [ethyl oleate], the “percent of total FAEE in plasma” value ([2]; acute drinkers) was “about 30%”, the “percent of total FAEE in plasma” value ([2]; chronic drinkers, at admission to detoxification program) was ~75% and the “Concentration of Ethyl Oleate in Binge Drinkers (Mean +/− SEM)” value ([3]; 24 hours after peak) was “(14 ± 8) pmol/mL”. The “Concentration of Ethyl Oleate in Chronic Drinkers (Mean +/− SEM)” value ([3]; 24 hours after peak) was “(2714 ± 1821) pmol/mL”, the “proportion of total FAEE which is ethyl oleate” value [3, 5] was 10% and the “average proportion of total FAEE which is ethyl oleate” value ([3]; binge drinkers) was 32%. For the same compound, the “proportion of total FAEE which is ethyl oleate” value ([3]; chronic drinkers, 24 hours after peak ethanol levels) was 71%, the “average proportion of total FAEE which is ethyl oleate” value ([3]; chronic drinkers) was 28% and the concentration at 24 h ([3]; 24 hours after peak ethanol levels, read-out: concentration of ethyl oleate in the majority of binge drinkers (9 out of 13)) was < 1 nM. The concentration at 24 h ([3]; 24 hours after peak, read-out: Concentration of Ethyl Oleate in Binge Drinkers (range)) was 0 to 80 nM, the concentration at 24 h ([3]; 24 hours after peak, read-out: Concentration of Ethyl Oleate in Chronic Drinkers (range)) was 120 to 28100 nM and the “Proportion of Ethyl Oleate in Binge Drinkers (Mean +/− SEM)” value ([3]; 24 hours after peak) was “(0.09 +/− 0.04)”. For the same compound, the “Proportion of Ethyl Oleate in Binge Drinkers (range)” value ([3]; 24 hours after peak) was 0.01-0.46, the “Proportion of Ethyl Oleate in Chronic Drinkers (Mean +/− SEM)” value ([3]; 24 hours after peak) was “(0.71 +/− 0.02)” and the “Proportion of Ethyl Oleate in Chronic Drinkers (range)” value ([3]; 24 hours after peak) was 0.58-0.82. The “Proportion of Ethyl Oleate in Binge Drinkers (Mean +/− SEM)” value ([3]; peak or near peak ethanol) was “(0.28 +/− 0.02)”, the “Proportion of Ethyl Oleate in Binge Drinkers (range)” value ([3]; peak or near peak ethanol) was 0.01-0.44 and the “Proportion of Ethyl Oleate in Chronic Drinkers (Mean +/− SEM)” value ([3]; peak or near peak ethanol) was “(0.32 +/− 0.02)”. The “Proportion of Ethyl Oleate in Chronic Drinkers (range)” value ([3]; peak or near peak ethanol) was 0.16-0.46, the “Concentration of Ethyl Oleate in Binge Drinkers (Mean +/− SEM)” value ([3]; peak or near peak ethanol) was “(557 ± 82) pmol/mL” and the “Concentration of Ethyl Oleate in Binge Drinkers (range)” value ([3]; peak or near peak ethanol) was 184 to 1049 nM. The “Concentration of Ethyl Oleate in Chronic Drinkers (Mean +/− SEM)” value ([3]; peak or near peak ethanol) was “(2817 +/− 780) pmol/mL” and the “Concentration of Ethyl Oleate in Chronic Drinkers (range)” value ([3]; peak or near peak ethanol) was 96 to 16011 nM.
In the case of `CCCCCCCCCCCCCCCC(=O)OCC` [ethyl palmitate], the “proportion of total FAEE, acute drinkers relative to chronic drinkers” value [2] is reported as “almost three times higher”, the “Ethyl Palmitate to Ethyl Oleate Ratio in Chronic Drinkers (Mean +/− SEM)” value ([3]; 24 hours after peak) is reported as “(0.41 +/− 0.03)” and the “Ethyl Palmitate to Ethyl Oleate Ratio in Chronic Drinkers (range)” value ([3]; 24 hours after peak) is reported as 0.22-0.73. For the same compound, the “Ethyl Palmitate to Ethyl Oleate Ratio in Binge Drinkers (Mean +/− SEM)” value ([3]; 24 hours after peak, mean calculated using a value of 100 where the ratio was ∞) was “(69.8 +/− 13.1)*”, the “P/O ratio of all chronic drinkers” value [3, 6] was “less than 1.0” and the “P/O ratio of most binge drinkers” value [3, 6] was “∞”. For the same compound, the “mean proportion of total FAEE which is ethyl palmitate” value (“mean proportion” for short) [3, 5] was 80%, the “mean proportion” value ([3]; binge drinkers, peak or near peak alcohol levels) was 49% and the “mean proportion” value ([3]; chronic alcoholics, 24 hours after peak ethanol levels) was 29%. For the same compound, the “mean proportion” value ([3]; chronic alcoholics, peak or near peak alcohol levels) was 38%, the “Ethyl Palmitate to Ethyl Oleate Ratio in Binge Drinkers (Mean +/− SEM)” value ([3]; peak or near peak) was “(6.28 +/− 5.0)” and the “Ethyl Palmitate to Ethyl Oleate Ratio in Binge Drinkers (range)” value ([3]; peak or near peak) was 0.96-70.65. The “Ethyl Palmitate to Ethyl Oleate Ratio in Chronic Drinkers (Mean +/− SEM)” value ([3]; peak or near peak) was “(1.27 +/− 0.12)” and the “Ethyl Palmitate to Ethyl Oleate Ratio in Chronic Drinkers (range)” value ([3]; peak or near peak) was 0.53-3.49.
With `CCCCC/C=C\C/C=C\C/C=C\C/C=C\CCCC(=O)OCC` [ethyl arachidonate] the “level in liver and adipose, individuals with detectable blood ethanol at autopsy compared with chronic alcoholics and social drinkers” value [4] was “markedly higher”.
